Results reported in PMC11022693, “Targeting C21orf58 is a Novel Treatment Strategy of Hepatocellular Carcinoma by Disrupting the Formation of JAK2/C21orf58/STAT3 Complex” (Advanced Science, 2024).

Biological target: T1, C21orf58 (Homo sapiens, UniProt P58505)
T1 construct: human C21orf58 in pET-21a, expressed in E. coli Rosetta (DE3), Ni-NTA purified, lyophilized
Test: 1H NMR of mixed ligand and purified protein
Format: binding
Conditions: deuterated water; mixed and incubated 30 min at room temperature; 600 MHz

T1 sequence (P58505 whole entry): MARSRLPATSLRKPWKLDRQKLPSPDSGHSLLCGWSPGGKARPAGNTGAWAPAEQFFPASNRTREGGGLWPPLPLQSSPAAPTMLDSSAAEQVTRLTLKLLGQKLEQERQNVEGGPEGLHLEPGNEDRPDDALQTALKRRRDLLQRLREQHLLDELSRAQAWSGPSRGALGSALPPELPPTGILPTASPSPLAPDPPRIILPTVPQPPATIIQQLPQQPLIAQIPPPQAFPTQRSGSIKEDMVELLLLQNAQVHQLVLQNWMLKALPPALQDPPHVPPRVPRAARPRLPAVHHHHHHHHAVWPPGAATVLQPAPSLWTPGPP

## C=C(C)CNc1ccc(C(C)C(=O)O)cc1 (stereo not shown) [alminoprofen]
  1H NMR of mixed ligand and purified protein: H Nuclear Magnetic Resonance Spectra suggested that alminoprofen could bind on the C21orf58 protein
